Results as given in US20260176319A1, “PEPTIDE ANALOGS AND METHODS OF USING THE SAME” (Kallyope, Inc., priority 2024, published 2026).
Like-named read-outs stand apart in the source and are kept apart here. Starred links: 1 amine or outer side, 2 acyl side, 3 side chain; linkers in the order of their positions; H or OH if unused. Non-standard residues stand in square brackets, D forms with d. Residues, ends and D or L forms follow the SMILES beside them. *: point of attachment. Me3N+(CH2)2O(CH2)2O(CH2)2CO = C[N+](C)(C)CCOCCOCCC(=O)*; Trp(7-Me) = Cc1cccc2c(C[C@H](N)C(=O)O)c[nH]c12; C20 diacid = O=C(O)CCCCCCCCCCCCCCCCCCC(=O)*; d(γGlu) = O=C(O)[C@@H](CCC(=O)[*:2])N[*:1]; C18 diacid = O=C(O)CCCCCCCCCCCCCCCCC(=O)*; γGlu = O=C(O)[C@H](CCC(=O)[*:2])N[*:1]; NMeH = CN[C@@H](Cc1c[nH]cn1)C(=O)O; X1 = O=C(CC1(N[*:1])CCC1)[*:2]; X2 = O=C(CC1(N[*:1])CC1)[*:2]; Nle = CCCC[C@H](N)C(=O)O; β3hA = C[C@H](N)CC(=O)O; Dap = NC[C@H](N)C(=O)O; AEEA = NCCOCCOCC(=O)O; βAla = NCCC(=O)O

How the values were obtained:
[1] = Pharmacokinetics after intravenous peptide administration in mice; set-up: species or system C57BL/6 mice; details: in vivo
Description: GPR-10 and peptides were dosed IV at 2 mg/kg as a formulation of 0.4 mg/mL in […]+65% water (pH 6-7).

[2] = target: T1, human GRP receptors (Homo sapiens, UniProt P30550); experiment: IP1 GRPR activity: HTRF IP1-Gq assay in U2OS cells stably expressing human GRP receptors; type: cell-based; details: 90 minutes incubation, read-out: hIP1 GRPR EC50
T1 construct: host or cells: U2OS
Description: U2OS cells stably expressing human GRP receptors (DiscoverX, #93-0229C3) were cultured according to manufacturer's instructions. Cells were cultured to […], then collected using AccuTase (Innovative Cell Technologies, #AT104). Cells were washed and plated on a poly-D-lysine-coated 384-well plate (ThermoFisher, #A3890401) at a density of 2,500 cells/well in […] assay buffer (AssayComplete Cell Plating 5 Reagent, DiscoverX #93-0563R5), then incubated overnight at 37° C. and 5% C02. The following morning, a homogenous time-resolved fluorescence (HTRF) assay was performed in a 384-well plate format using the IP1-Gq assay kit (Cisbio, 62IPAPEB). Test compounds were made as a stock in DMSO, then serially diluted to generate 10-point dose response curves in IP1 stimulation buffer. Five microliters of the prepared compounds were then added to the plate containing cells and assay buffer in duplicate, and the cells were incubated at 37° C. and 5% CO2 for 90 minutes. Following compound incubation, […] of IP1 lysis/detection buffer (prepared according to manufacturer's instructions) was added to each well, and the plates were incubated at room temperature for 1 hour. HTRF signals were measured using a plate reader (ClarioSTAR), calculating the ratio between emissions at 665 nm and 620 nm (HTRF ratio). HTRF ratio for positive (Max, […]; SEQ ID NO. 45) and negative (Min, DMSO) controls were used to normalize HTRF data and generate values for % activity. EC50 and Max activity values were determined using a standard 4-parameter fit using GraphPad Prism.

[3] = mouse, C57BL/6 mice, IV 2 mg/kg, formulation of 0.4 mg/mL, read-out: T1/2 (converted)
[4] = mouse, C57BL/6 mice, IV 2 mg/kg, formulation of 0.4 mg/mL, read-out: CL

T1 sequence (P30550 whole entry): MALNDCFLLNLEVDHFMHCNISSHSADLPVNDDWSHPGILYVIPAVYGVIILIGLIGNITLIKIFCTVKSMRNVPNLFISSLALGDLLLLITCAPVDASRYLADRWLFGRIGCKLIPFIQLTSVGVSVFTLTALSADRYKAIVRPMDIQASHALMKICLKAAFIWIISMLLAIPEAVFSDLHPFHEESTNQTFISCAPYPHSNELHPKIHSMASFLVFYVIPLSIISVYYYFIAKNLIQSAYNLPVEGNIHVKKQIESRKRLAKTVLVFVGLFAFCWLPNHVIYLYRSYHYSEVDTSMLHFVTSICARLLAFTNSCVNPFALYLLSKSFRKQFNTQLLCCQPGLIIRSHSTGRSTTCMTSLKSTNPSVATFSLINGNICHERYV

| Compound | half-life [1, 3] [min] | clearance [1, 4] [mL/min/kg] | EC50 [2] [nM] | further results |
| --- | --- | --- | --- | --- |
| CSCC[C@H](NC(=O)[C@H](CC(C)C)NC(=O)[C@H](Cc1cnc[nH]1)NC(=O)CNC(=O)[C@@H](NC(=O)[C@H](C)NC(=O)[C@H](Cc1c[nH]c2ccccc12)NC(=O)[C@H](Cc1cnc[nH]1)NC(=O)[C@H](CC(N)=O)NC(=O)CN)C(C)C)C(N)=O [GRP10, G-N-H-W-A-V-G-H-L-M-NH2, reference compound] |  |  |  | clearance ([1]; C57BL/6, mouse, iv, 2 mg/kg): 4540 mL/min/kg; half-life ([1]; C57BL/6, mouse, iv, 2 mg/kg): 18 min |
| CCCCCCCCCCCCCCCC(=O)N[C@H](CCC(=O)NCCOCCOCC(=O)NCCOCCOCC(=O)NCC(=O)N[C@@H](CC(N)=O)C(=O)N[C@@H](Cc1c[nH]cn1)C(=O)N[C@@H](Cc1c[nH]c2ccccc12)C(=O)N[C@@H](C)C(=O)N[C@H](C(=O)NCC(=O)N[C@@H](Cc1c[nH]cn1)C(=O)N[C@@H](CC(C)C)C(=O)N[C@@H](CCSC)C(N)=O)C(C)C)C(=O)O [Peptide 8, Palmitoyl-D-γGlu-OEG-OEG-Gly-Asn-His-Trp-Ala-Val-Gly-His-Leu-Met-NH2] | 120 | 1.2 |  |  |
| CCCC[C@H](NC(=O)[C@H](CC(C)C)NC(=O)[C@H](Cc1c[nH]cn1)NC(=O)CCNC(=O)[C@@H](NC(=O)[C@H](C)NC(=O)[C@H](Cc1c[nH]c2c(C)cccc12)NC(=O)[C@H](Cc1c[nH]cn1)NC(=O)[C@H](CCC(=O)O)NC(=O)CNC(=O)[C@H](CO)NC(=O)COCCOCCNC(=O)COCCOCCNC(=O)CC[C@H](NC(=O)CC[C@H](NC(=O)CCCCCCCCCCCCCCCCCCC(=O)O)C(=O)O)C(=O)O)C(C)C)C(N)=O [Peptide 255, Eicosanedioyl-γGlu-Glu-OEG-OEG-Ser-Gly-Glu-His-7MeTrp-Ala-Val-β-Ala-His-Leu-Nle-NH2] ({C20 diacid-γGlu-γGlu-AEEA-AEEA}-SGEH[Trp(7-Me)]AV[βAla]HL[Nle]-NH2) | 564 | 0.09 | 6.9 |  |
| CCCC[C@H](NC(=O)[C@H](CC(C)C)NC(=O)[C@H](Cc1c[nH]cn1)NC(=O)CCNC(=O)[C@@H](NC(=O)[C@H](C)NC(=O)[C@H](Cc1c[nH]c2c(C)cccc12)NC(=O)[C@H](Cc1c[nH]cn1)NC(=O)[C@H](CCC(N)=O)NC(=O)[C@H](CO)NC(=O)[C@H](CCC(=O)O)NC(=O)COCCOCCNC(=O)COCCOCCNC(=O)CC[C@H](NC(=O)CC[C@H](NC(=O)CCCCCCCCCCCCCCCCCCC(=O)O)C(=O)O)C(=O)O)C(C)C)C(N)=O [Peptide 257, Eicosanedioyl-γGlu-γGlu-OEG-OEG-Glu-Ser-Gln-His-7MeTrp-Ala-Val-β-Ala-His-Leu-Nle-NH2] ({C20 diacid-γGlu-γGlu-AEEA-AEEA}-ESQH[Trp(7-Me)]AV[βAla]HL[Nle]-NH2) | 564 | 0.09 |  |  |
| CCCC[C@H](NC(=O)[C@H](CC(C)C)NC(=O)[C@H](Cc1c[nH]cn1)NC(=O)C[C@H](C)NC(=O)[C@@H](NC(=O)[C@H](C)NC(=O)[C@H](Cc1c[nH]c2c(C)cccc12)NC(=O)[C@H](Cc1c[nH]cn1)NC(=O)[C@H](CC(N)=O)NC(=O)CNC(=O)COCCOCCNC(=O)COCCOCCNC(=O)CC[C@H](NC(=O)CC[C@H](NC(=O)CCCCCCCCCCCCCCCCCCC(=O)O)C(=O)O)C(=O)O)C(C)C)C(N)=O [Peptide 258, Eicosanedioyl-γGlu-γGlu-OEG-OEG-Gly-Asn-His-7MeTrp-Ala-Val-BABA-His-Leu-Nle-NH2] ({C20 diacid-γGlu-γGlu-AEEA-AEEA}-GNH[Trp(7-Me)]AV[β3hA]HL[Nle]-NH2) |  |  | 6 |  |
| CCCC[C@H](NC(=O)[C@H](CC(C)C)NC(=O)[C@H](Cc1c[nH]cn1)NC(=O)CC1(NC(=O)[C@@H](NC(=O)[C@H](C)NC(=O)[C@H](Cc2c[nH]c3ccccc23)NC(=O)[C@H](Cc2c[nH]cn2)NC(=O)[C@H](CCC(N)=O)NC(=O)CNC(=O)COCCOCCNC(=O)COCCOCCNC(=O)CC[C@H](NC(=O)CC[C@H](NC(=O)CCCCCCCCCCCCCCCCCCC(=O)O)C(=O)O)C(=O)O)C(C)C)CC1)C(N)=O [Peptide 272, Eicosanedioyl-γGlu-γGlu-OEG-OEG-Gly-Gln-His-Trp-Ala-Val-ACPA-His-Leu-Nle-NH2] ({C20 diacid-γGlu-γGlu-AEEA-AEEA}-GQHWAV[X2]HL[Nle]-NH2) |  |  | 6 |  |
| CCCC[C@H](NC(=O)[C@H](CC(C)C)NC(=O)[C@H](Cc1c[nH]cn1)NC(=O)CC1(NC(=O)[C@@H](NC(=O)[C@H](C)NC(=O)[C@H](Cc2c[nH]c3ccccc23)NC(=O)[C@H](Cc2c[nH]cn2)NC(=O)[C@H](CCC(N)=O)NC(=O)CNC(=O)COCCOCCNC(=O)COCCOCCNC(=O)CC[C@H](NC(=O)CC[C@H](NC(=O)CCCCCCCCCCCCCCCCCCC(=O)O)C(=O)O)C(=O)O)C(C)C)CCC1)C(N)=O [Peptide 273, Eicosanedioyl-γGlu-Glu-OEG-OEG-Gly-Gln-His-Trp-Ala-Val-ACBA-His-Leu-Nle-NH2] ({C20 diacid-γGlu-γGlu-AEEA-AEEA}-GQHWAV[X1]HL[Nle]-NH2) |  |  | 12.3 |  |

Now from value to molecule, other results behind:

| half-life [1, 3] [min] | clearance [1, 4] [mL/min/kg] | EC50 [2] [nM] | Compound | further results |
| --- | --- | --- | --- | --- |
| < 6 |  |  | CCCC[C@H](NC(=O)[C@H](CC(C)C)NC(=O)[C@H](Cc1c[nH]cn1)NC(=O)[C@@H](C)NC(=O)[C@@H](NC(=O)[C@H](C)NC(=O)[C@H](Cc1c[nH]c2ccccc12)NC(=O)[C@H](Cc1c[nH]cn1)NC(=O)[C@H](CC(N)=O)NC(=O)CN)C(C)C)C(N)=O [Peptide 6, Gly-Asn-His-Trp-Ala-Val-D-Ala-His-Leu-Nle-NH2] |  |
| 342 | 0.5 |  | CCCC[C@H](NC(=O)[C@H](CC(C)C)NC(=O)[C@H](Cc1c[nH]cn1)NC(=O)[C@@H](C)NC(=O)[C@@H](NC(=O)[C@H](C)NC(=O)[C@H](Cc1c[nH]c2ccccc12)NC(=O)[C@H](Cc1c[nH]cn1)NC(=O)[C@H](CC(N)=O)NC(=O)CNC(=O)COCCOCCNC(=O)COCCOCCNC(=O)CC[C@@H](NC(=O)CCCCCCCCCCCCCCCCC(=O)O)C(=O)O)C(C)C)C(N)=O [Peptide 9, Octadecanedioyl-D-γGlu-OEG-OEG-Gly-Asn-His-Trp-Ala-Val-D-Ala-His-Leu-Nle-NH2] ({C18 diacid-d(γGlu)-AEEA-AEEA}-GNHWAV[dA]HL[Nle]-NH2) |  |
| 396 | 0.12 | 7.5 | CCCC[C@H](NC(=O)[C@H](CC(C)C)NC(=O)[C@H](Cc1c[nH]cn1)NC(=O)CCNC(=O)[C@@H](NC(=O)[C@H](C)NC(=O)[C@H](Cc1c[nH]c2c(C)cccc12)NC(=O)[C@H](Cc1c[nH]cn1)NC(=O)[C@H](CCCNC(=N)N)NC(=O)CNC(=O)[C@H](CCC(=O)O)NC(=O)COCCOCCNC(=O)COCCOCCNC(=O)CC[C@H](NC(=O)CC[C@H](NC(=O)CCCCCCCCCCCCCCCCCCC(=O)O)C(=O)O)C(=O)O)C(C)C)C(N)=O [Peptide 252, Eicosanedioyl-γGlu-γGlu-OEG-OEG-Glu-Gly-Arg-His-7MeTrp-Ala-Val-β-Ala-His-Leu-Nle-NH2] ({C20 diacid-γGlu-γGlu-AEEA-AEEA}-EGRH[Trp(7-Me)]AV[βAla]HL[Nle]-NH2) |  |
|  |  | 4 | CCCC[C@H](NC(=O)[C@H](CC(C)C)NC(=O)[C@H](Cc1c[nH]cn1)NC(=O)CCNC(=O)[C@@H](NC(=O)[C@H](C)NC(=O)[C@H](Cc1c[nH]c2ccccc12)NC(=O)[C@H](Cc1c[nH]cn1)NC(=O)[C@H](CNC(=O)CCOCCOCC[N+](C)(C)C)NC(=O)CNC(=O)COCCOCCNC(=O)COCCOCCNC(=O)CC[C@H](NC(=O)CCCCCCCCCCCCCCCCCCC(=O)O)C(=O)O)C(C)C)C(N)=O [Peptide 262, Eicosanedioyl-γGlu-OEG-OEG-Gly-Dap(2CE-PEG-TMEA)-His-Trp-Ala-Val-β-Ala-His-Leu-Nle-NH2] ({C20 diacid-γGlu-AEEA-AEEA}-G[Dap](Me3N+(CH2)2O(CH2)2O(CH2)2CO)HWAV[βAla]HL[Nle]-NH2) |  |
|  |  | 3.8 | CCCC[C@H](NC(=O)[C@H](CC(C)C)NC(=O)[C@H](Cc1cnc[nH]1)N(C)C(=O)C[C@H](C)NC(=O)[C@@H](NC(=O)[C@H](C)NC(=O)[C@H](Cc1c[nH]c2c(C)cccc12)NC(=O)[C@H](Cc1c[nH]cn1)NC(=O)[C@H](CCC(N)=O)NC(=O)CNC(=O)COCCOCCNC(=O)COCCOCCNC(=O)CC[C@H](NC(=O)CC[C@H](NC(=O)CCCCCCCCCCCCCCCCCCC(=O)O)C(=O)O)C(=O)O)C(C)C)C(N)=O [Peptide 270, Eicosanedioyl-γGlu-γGlu-OEG-OEG-Gly-Gln-His-7MeTrp-Ala-Val-BABA-NMeHis-Leu-Nle-NH2] ({C20 diacid-γGlu-γGlu-AEEA-AEEA}-GQH[Trp(7-Me)]AV[β3hA][NMeH]L[Nle]-NH2) |  |
